Source: patent US9005641B2, “Compositions and methods for preventing or reducing resistance of insects to insecticides” (Rothamsted Research Limited, priority 2002, dated 2015)

How the values were obtained:
[1] = system: pyrethroid resistant second instar H. armigera larvae; experiment: Field trial on cotton, night sprays; format: in vivo, Helicoverpa armigera; conditions: one day after treatment; lambdacyhalothrin 15 g a.i./ha, PBO 320 g a.i./ha; strain 20 fold resistant
Protocol: In the lack of H. armigera pressure on cotton, pyrethroid resistant second instar H. armigera larvae, which were the progeny a field strain originating from Queensland, were placed on cotton plant. The strain was 20 fold resistant to lambdacyhalothrin.
Insecticides were mixed with water.
The trial was conducted on replicated, 1 row×2 m plots. Each plot contained from 13-17 mature cotton plants. There was an unsprayed buffer of two rows between each plot. Just prior to sunset, ten second instar H. armigera larvae were placed onto the terminals of each plant in the test plots and the plots sprayed. H. armigera numbers per plant were assessed one day after treatment. Temperature ranged from 24-26° C. The mean percentage mortality and standard deviation were calculated for each treatment.

[2] = system: pyrethroid-resistant H. armigera larvae; experiment: Synergism studies: PBO pre-treatment before pyrethroid, larval mortality
Protocol: These involved a comparison of esterase inhibition (expressed as % of control, ± standard deviation) incurred by H. armigera larvae over time following topical application of 1 μl PBO (1%), and the effect on mortality of pyrethroid-resistant larvae when exposed to increasing PBO (1 μl, 1% PBO/larva) pre-treatment intervals before fenvalerate (1 μl, 0.125% fenvalerate/larva, FIG. 3) and zeta-cypermethrin (1 μl, 0.01% zeta-cypermethrin/larva, FIG. 4) exposure.

CC1(C)[C@H](C(=O)O[C@H](C#N)c2cccc(Oc3ccccc3)c2)[C@@H]1/C=C(\Cl)C(F)(F)F [lambdacyhalothrin]
mortality / control of H. armigera [1]: ~40%

CC1(C)C(C=C(Cl)Cl)C1C(=O)OC(C#N)c1cccc(Oc2ccccc2)c1 (racemic) [zeta-cypermethrin, (S)-cyano(3-phenoxyphenyl)-methyl(±)-cis-trans-3-(2,2,-dichloroethenyl)-2,2-dimethylcyclo-propanecarboxylate]
mortality (plateau) ([2]; 1 μl 0.01% zeta-cypermethrin/larva, PBO (1 μl, 1%) pre-treatment interval 4-10 hrs): 100%

CC(C)C(C(=O)OC(C#N)c1cccc(Oc2ccccc2)c1)c1ccc(Cl)cc1 (stereo not drawn) [fenvalerate, (R—(R*,S*)-4-chloro-α(1-methylethyl)benzeneacetic acid, cyano (3-phenoxyphenyl)methyl ester)]
mortality (plateau) ([2]; 1 μl 0.125% fenvalerate/larva, PBO (1 μl, 1%) pre-treatment interval 4-5 hrs): 100%
